# According to US8697869B2, “3-(heteroaryl-amino)-1,2,3,4-tetrahydro-9H-carbazole derivatives and their use as prostaglandin D2 receptor modulators” (Actelion Pharmaceuticals Ltd., priority 2010, dated 2014):
# Tests used:
# [1] = target: T1, hCRTH2 receptor (Homo sapiens (Human), UniProt Q9Y5Y4); test: hCRTH2 receptor membranes radioligand displacement assay (3H-PGD2); settings: 3H-PGD2 2.5 nM, HEK293-hCRTH2 membranes, Binding-Buffer with 0.1% BSA
# Experimental: Biological Assays: Preparation of hCRTH2 Receptor Membranes and Radioligand Displacement Assay:
# (§1) First, recombinant HEK293-hCRTH2 cells were detached from culture plates into 5 ml buffer A/plate (Buffer A: 5 mM Tris, 1 mM MgCl2-6H2O pH=7.4) using a rubber policeman. Cells were then transferred into centrifugation tubes and centrifuged for 5 min at 400 g. The cell pellet was resuspended in the same buffer and tubes were frozen at −80° C. Cells were thawed and membrane fragments were generated by homogenization using a polytron homogenizer (30 seconds). The membrane fragments were then centrifuged at 3000 g for 20 minutes and resuspended in buffer C (Buffer C: 75 mM Tris, 25 mM MgCl2, 250 mM Saccharose pH 7.4). Aliquots of membrane fragements were stored at −20° C.
# (§2) Binding assay was performed in a final assay volume of 250 μl. First, 25 μl of test compound, previously diluted in Binding-Buffer (Binding-Buffer: 50 mM Tris-Base, 100 mM NaCl, 1 mM EDTA, 0.1% BSA (protease free), 0.01% NaN3, 10 mM MnCl2 pH 7.0) was placed into each well. After addition of 75 μl Binding-Buffer, 50 μl of the radioligand ^3H-PGD2 (at 2.5 nM (220.000 dpm/well) from ANAWA ART0662) was added to each well. Binding assay was started by addition of 100 μl CRTH2 membrane fragments, reaching a final concentration of 20 μg/well. For non-specific binding, PGD2 was added to the reaction mixture to […] final concentration. This assay mix was incubated for 90 minutes at room temperature and then filtered through a GF/C filter 96-well plate which was pre-soaked for 3 hours in 0.5% polyethyleneimine (PEI). The filter-wells were washed three times with ice cold Binding-Buffer. Then, 40 μl of Microscint-40 (Packard) was added to each well and the retained radioactivity quantified in a Topcount (Packard).
# [2] = target: T1, hCRTH2 receptor; test: Radioligand displacement assay in presence of human serum albumin (HSA); settings: 3H-PGD2 2.5 nM, Binding-Buffer with 0.5% HSA instead of 0.1% BSA
# Experimental: as §1, §2
# Radioligand Displacement Assay-Human Serum Albumin (HSA):
# Radioligand displacement assay in presence of human serum albumin (HSA) was performed as described above, with following modifications. Binding-Buffer-HSA: Binding-buffer+0.5% Sigma Albumin from Human serum A1887 (instead of 0.1% BSA). A volume of 25 μl test compound, previously diluted in Binding-Buffer-HSA was placed into each well. After addition of 75 μl Binding-Buffer-HSA, 50 μl of ^3H-PGD2 (at 2.5 nM (220.000 dpm/well) from ANAWA ART0662) was added to each well. Remaining protocol was identical as described above.
# T1 sequence (Q9Y5Y4 whole entry): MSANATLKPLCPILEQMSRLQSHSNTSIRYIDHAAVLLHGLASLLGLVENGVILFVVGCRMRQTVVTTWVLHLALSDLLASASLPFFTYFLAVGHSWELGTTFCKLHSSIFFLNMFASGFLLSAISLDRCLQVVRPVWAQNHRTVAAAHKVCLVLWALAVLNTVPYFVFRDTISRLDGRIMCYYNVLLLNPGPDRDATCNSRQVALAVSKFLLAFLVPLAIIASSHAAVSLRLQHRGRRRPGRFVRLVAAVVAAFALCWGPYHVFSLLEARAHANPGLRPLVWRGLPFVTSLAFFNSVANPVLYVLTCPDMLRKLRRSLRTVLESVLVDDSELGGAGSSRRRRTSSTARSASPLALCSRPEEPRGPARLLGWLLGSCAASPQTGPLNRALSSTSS
SMILES,IC50 [1],IC50 [2]
"O=C(O)Cn1c2c(c3cc(F)ccc31)C[C@@H](N(CC(F)F)c1ncc(Cl)cn1)CC2 [Example 41, (3S)-2-(3-((5-chloropyrimidin-2-yl)(2,2-difluoroethyl)amino)-6-fluoro-3,4-dihydro-1H-carbazol-9(2H)-yl)acetic acid]",15 nM,68 nM
"CN(c1ccc(C(F)(F)F)cn1)[C@H]1CCc2c(c3cc(F)ccc3n2CC(=O)O)C1 [Example 35, (3S)-2-(6-fluoro-3-(methyl(5-(trifluoromethyl)pyridin-2-yl)amino)-3,4-dihydro-1H-carbazol-9(2H)-yl)acetic acid]",9.1 nM,20 nM
"CN(c1ncnc2ccccc12)[C@H]1CCc2c(c3cc(F)ccc3n2CC(=O)O)C1 [Example 21, (3S)-2-(6-fluoro-3-(methyl(quinazolin-4-yl)amino)-3,4-dihydro-1H-carbazol-9(2H)-yl)acetic acid]",26 nM,–
"CN(c1nccc(C(F)(F)F)n1)[C@H]1CCc2c(c3cc(F)ccc3n2CC(=O)O)C1 [Example 13, (3S)-2-(6-fluoro-3-(methyl(4-(trifluoromethyl)pyrimidin-2-yl)amino)-3,4-dihydro-1H-carbazol-9(2H)-yl)acetic acid]",12 nM,769 nM
"CN(c1ncc(-c2ccccc2)cn1)[C@H]1CCc2c(c3cc(F)ccc3n2CC(=O)O)C1 [Example 30, (3S)-2-(6-fluoro-3-(methyl(5-phenylpyrimidin-2-yl)amino)-3,4-dihydro-1H-carbazol-9(2H)-yl)acetic acid]",11 nM,41 nM
"CN(c1ncc(Cl)cn1)[C@@H]1CCc2c(c3cc(F)ccc3n2CC(=O)O)C1 [Example 10, (3R)-2-(3-((5-chloropyrimidin-2-yl)(methyl)amino)-6-fluoro-3,4-dihydro-1H-carbazol-9(2H)-yl)acetic acid]",58 nM,–
"O=C(O)Cn1c2c(c3cc(F)ccc31)C[C@H](Nc1ncc(C(F)(F)F)cn1)CC2 [Example 5, (3R)-2-(6-fluoro-3-((5-(trifluoromethyl)pyrimidin-2-yl)amino)-3,4-dihydro-1H-carbazol-9-(2H)-yl)acetic acid]",27 nM,–
"O=C(O)Cn1c2c(c3cc(F)ccc31)C[C@H](Nc1nccc(C(F)(F)F)n1)CC2 [Example 6, (3R)-2-(6-fluoro-3-((4-(trifluoromethyl)pyrimidin-2-yl)amino)-3,4-dihydro-1H-carbazol-9-(2H)-yl)acetic acid]",46 nM,–
"CN(c1ncc(C(F)(F)F)cn1)[C@@H]1CCc2c(c3cc(F)ccc3n2CC(=O)O)C1 [Example 12, (3R)-2-(6-fluoro-3-(methyl(5-(trifluoromethyl)pyrimidin-2-yl)amino)-3,4-dihydro-1H-carbazol-9(2H)-yl)acetic acid]",141 nM,–
"O=C(O)Cn1c2c(c3cc(F)ccc31)C[C@H](Nc1ncc(F)cn1)CC2 [Example 2, (3R)-2-(6-fluoro-3-((5-fluoropyrimidin-2-yl)amino)-3,4-dihydro-1H-carbazol-9-(2H)-yl)acetic acid]",27 nM,–
"Cc1nc(N(C)[C@H]2CCc3c(c4cc(F)ccc4n3CC(=O)O)C2)c2ccccc2n1 [Example 23, (3S)-2-(6-fluoro-3-(methyl(2-methylquinazolin-4-yl)amino)-3,4-dihydro-1H-carbazol-9(2H)-yl)acetic acid]",55 nM,–
"CN(c1ncc(F)cn1)[C@@H]1CCc2c(c3cc(F)ccc3n2CC(=O)O)C1 [Example 8, (3R)-2-(6-fluoro-3-((5-fluoropyrimidin-2-yl)(methyl)amino)-3,4-dihydro-1H-carbazol-9(2H)-yl)acetic acid]",42 nM,–
"CN(c1nccc(C(F)(F)F)n1)[C@@H]1CCc2c(c3cc(F)ccc3n2CC(=O)O)C1 [Example 14, (3R)-2-(6-fluoro-3-(methyl(4-(trifluoromethyl)pyrimidin-2-yl)amino)-3,4-dihydro-1H-carbazol-9(2H)-yl)acetic acid]",67 nM,–
"CN(c1cnc2ccccc2n1)[C@H]1CCc2c(c3cc(F)ccc3n2CC(=O)O)C1 [Example 44, (3S)-2-(6-fluoro-3-(methyl(quinoxalin-2-yl)amino)-3,4-dihydro-1H-carbazol-9(2H)-yl)acetic acid]",11 nM,176 nM
"Cc1ccnc(N(C)[C@H]2CCc3c(c4cc(F)ccc4n3CC(=O)O)C2)n1 [Example 17, (3S)-2-(6-fluoro-3-(methyl(4-methylpyrimidin-2-yl)amino)-3,4-dihydro-1H-carbazol-9(2H)-yl)acetic acid]",107 nM,–
"Cc1cc(C)nc(N(C)[C@H]2CCc3c(c4cc(F)ccc4n3CC(=O)O)C2)n1 [Example 16, (3S)-2-(3-((4,6-dimethylpyrimidin-2-yl)(methyl)amino)-6-fluoro-3,4-dihydro-1H-carbazol-9(2H)-yl)acetic acid]",125 nM,–
"CC(C)N(c1ncc(Cl)cn1)[C@H]1CCc2c(c3cc(F)ccc3n2CC(=O)O)C1 [Example 26, (3S)-2-(3-((5-chloropyrimidin-2-yl)(isopropyl)amino)-6-fluoro-3,4-dihydro-1H-carbazol-9(2H)-yl)acetic acid]",809 nM,–

# The remaining lines, values ahead:
IC50 [1],IC50 [2],SMILES
14 nM,402 nM,"CN(c1nc(C(F)(F)F)cs1)C1CCc2c(c3cc(F)ccc3n2CC(=O)O)C1 (stereo not shown) [Example 47, 2-(6-fluoro-3-(methyl(4-(trifluoromethyl)thiazol-2-yl)amino)-3,4-dihydro-1H-carbazol-9(2H)-yl)acetic acid]"
37 nM,–,"CN(c1ccn(C)n1)C1CCc2c(c3cc(F)ccc3n2CC(=O)O)C1 (stereo not shown) [Example 49, 2-(6-fluoro-3-(methyl(1-methyl-1H-pyrazol-3-yl)amino)-3,4-dihydro-1H-carbazol-9(2H)-yl)acetic acid]"
2 nM,3 nM,"CN(c1ncc(Cl)cn1)C1CCc2c(c3cc(Cl)ccc3n2CC(=O)O)C1 (stereo not shown) [Example 54, 2-(6-chloro-3-((5-chloropyrimidin-2-yl)(methyl)amino)-3,4-dihydro-1H-carbazol-9(2H)-yl)acetic acid]"
4.6 nM,56 nM,"COc1ccc2c(c1)c1c(n2CC(=O)O)CCC(N(C)c2ncc(Cl)cn2)C1 (stereo not shown) [Example 57, 2-(3-((5-chloropyrimidin-2-yl)(methyl)amino)-6-methoxy-3,4-dihydro-1H-carbazol-9(2H)-yl)acetic acid]"
5.5 nM,40 nM,"Cc1ccc2c(c1)c1c(n2CC(=O)O)CCC(N(C)c2ncc(Cl)cn2)C1 (stereo not shown) [Example 55, 2-(3-((5-chloropyrimidin-2-yl)(methyl)amino)-6-methyl-3,4-dihydro-1H-carbazol-9(2H)-yl)acetic acid]"
6.4 nM,53 nM,"CN(c1ccon1)C1CCc2c(c3cc(F)ccc3n2CC(=O)O)C1 (stereo not shown) [Example 51, 2-(6-fluoro-3-(isoxazol-3-yl(methyl)amino)-3,4-dihydro-1H-carbazol-9(2H)-yl)acetic acid]"
72 nM,–,"CN(c1cc(C(C)(C)C)on1)C1CCc2c(c3cc(F)ccc3n2CC(=O)O)C1 (stereo not shown) [Example 48, 2-(3-((5-(tert-butyl)isoxazol-3-yl)(methyl)amino)-6-fluoro-3,4-dihydro-1H-carbazol-9(2H)-yl)acetic acid]"
3.5 nM,15 nM,"CN(c1ncc(Cl)cn1)C1CCc2c(c3cc(C(F)(F)F)ccc3n2CC(=O)O)C1 (stereo not shown) [Example 58, 2-(3-((5-chloropyrimidin-2-yl)(methyl)amino)-6-(trifluoromethyl)-3,4-dihydro-1H-carbazol-9(2H)-yl)acetic acid]"
7.4 nM,58 nM,"Cc1cc(N(C)C2CCc3c(c4cc(F)ccc4n3CC(=O)O)C2)no1 (stereo not shown) [Example 52, 2-(6-fluoro-3-(methyl(5-methylisoxazol-3-yl)amino)-3,4-dihydro-1H-carbazol-9(2H)-yl)acetic acid]"
73 nM,–,"CN(c1nc(C(C)(C)C)cs1)C1CCc2c(c3cc(F)ccc3n2CC(=O)O)C1 (stereo not shown) [Example 46, 2-(3-((4-(tert-butyl)thiazol-2-yl)(methyl)amino)-6-fluoro-3,4-dihydro-1H-carbazol-9(2H)-yl)acetic acid]"
127 nM,–,"Cc1nnc(N(C)C2CCc3c(c4cc(F)ccc4n3CC(=O)O)C2)s1 (stereo not shown) [Example 50, 2-(6-fluoro-3-(methyl(5-methyl-1,3,4-thiadiazol-2-yl)amino)-3,4-dihydro-1H-carbazol-9(2H)-yl)acetic acid]"
